Like-named read-outs stand apart in the source and are kept apart here.
What was measured:
full-length HAQ STING = target: T1, full-length HAQ STING (Homo sapiens, UniProt Q86WV6, G230A/H232R/R293Q/R71H); assay: 3H-cGAMP filtration binding assay (HAQ STING); details: competition with tritiated cGAMP ligand; T. ni cell membranes overexpressing full-length HAQ STING
T1 construct: made in house; host or cells: Trichoplusia ni (Hi-Five) insect cells, baculovirus generated in Sf21; crude membranes
Text: The ability of compounds to bind STING is quantified by the ability to compete with tritiated cGAMP ligand for human STING receptor membrane using a radioactive filter-binding assay. The binding assay employs STING receptor obtained from Hi-Five cell membranes overexpressing full-length HAQ STING prepared in-house and tritiated cGAMP ligand also purified in-house.
The ability of compounds to bind STING is quantified by their ability to compete with tritiated cGAMP ligand for human STING receptor membrane using a radioactive filter-binding assay. The binding assay employs STING receptor obtained from Trichoplusia ni cell membranes (T. ni; Expression Systems, cat #94-002F, www.expressionsystems.com) overexpressing full-length HAQ STING and tritiated cGAMP ligand.
The basic HAQ STING filtration assay protocol is as follows:
The compounds were serially titrated by the Hamilton STARPlus CORE in a 96-well plate (Greiner, #651201) using a 1:3 ten-point dose response format. […] 148 uL of prepared membrane was then manually added to each well of a 96-well deep-well polypropylene plate (Fisher Scientific, #12-566-121). Following membrane addition, 2 uL of either titrated test compound, DMSO control (Sigma #276855), or cold cGAMP control was added to the appropriate wells using a BIOMEK FX. Compound and membrane then preincubated for 60 min at RT to allow compound binding to equilibrate. Following equilibration, 8 nM of [^3H] c-GAMP ligand was prepared by diluting into assay buffer, and 50 uL of this working stock was then manually added to each well of the assay plate. Plates were then incubated at RT for 60 min, and the contents of each assay plate were then filtered through a 96-well GF/B filter plate (PerkinElmer, #6005250) using a TOMTEC MACH III Cell Harvester equipped with 20 mM HEPES buffer (Fisher Scientific, #BP299500). The filter plates were then dried at 55° C. for 30 min using a pressurized oven before 30 uL of ULTIMA GOLD F scintillate was added to each well. Tritium levels for each reaction well were then measured using a PerkinElmer TopCount plate reader.
After normalization to controls, the percent activity for each compound concentration was calculated by measuring the amount of remaining radioactivity. The plot of percent activity versus the log of compound concentration was fit with a 4-parameter dose response equation to calculate EC50 values.

[1] = system: IFN-β secretion from THP1 cells; assay: IFN-β secretion in THP1 cell culture (5 h); type: cell-based, human; details: for activation at 30 µM: Homo sapiens, read-out: % Effect at 30 μM relative to 2′3′-cGAMP
Description: The ability of compounds to stimulate the secretion of interferon-beta from THP1 cells was measured using a human IFN-β AlphaLISA kit (Perkin Elmer, Cat. No. AL265F). The basic protocol is as follows:
The cell viability and count was ascertained using a Beckman Coulter V-Cell XR cell counter. The cell suspension was centrifuged at 200×g for 5 min at RT. Cells were resuspended to a density of 0.8×10^6/mL in 37° C. assay medium. Subsequent liquid transfers were performed using either a Matrix electronic multichannel pipette or an Agilent Bravo Automated Liquid Handling Platform.
The assay was started by dispensing 40 μL of the previously prepared cell suspension into the wells of the plate containing compounds. After 5 h incubation at 37° C., 5% CO2 in a humidified atmosphere, the plate of cells and compounds was centrifuged at 200×g for 5 min at RT. […] To these supernatant-containing wells was added 10 μL of 5× Anti-Analyte Acceptor beads (50 μg/mL of AlphaLISA HiBlock Buffer) and incubated for 30 min at RT while shaking on an orbital plate shaker. To each well was added 10 μL of 5× Biotinylated Antibody Anti-analyte (5 nM in AlphaLISA HiBlock Buffer) and incubated on an orbital plate shaker for 60 min at RT or overnight at 4° C. To each well was added 25 μL of 2× SA-Donor beads (80 μg/mL in AlphaLISA HiBlock Buffer) and incubated for 30-45 min at RT in the dark while shaking on an orbital plate shaker. The plate was then read on a Perkin Elmer Envision (λex680 nm, λem=570 nm). The percent effect of the AlphaLISA signal at each compound concentration was calculated based on 30 uM cGAMP positive controls and 0.3% DMSO negative controls. The plot of percent effect versus the log of compound concentration was fit with a 4-parameter concentration response equation to calculate EC50 values.
Compounds of the disclosure were evaluated for IFN-β secretion in THP1 cell culture as described above.

[2] = THP-1, 5 h, THP1 cells, 5 h incubation, compound at 30 μM, 30 uM cGAMP = 100%
[3] = THP-1, THP1 cells, 5 h incubation, compound at 30 μM, 30 uM cGAMP = 100%
[4] = THP1 cells, 5 h incubation, compound at 30 μM, 30 uM cGAMP = 100%

T1 sequence (Q86WV6 with tags, fused parts or gaps R71H/G230A/H232R/R293Q): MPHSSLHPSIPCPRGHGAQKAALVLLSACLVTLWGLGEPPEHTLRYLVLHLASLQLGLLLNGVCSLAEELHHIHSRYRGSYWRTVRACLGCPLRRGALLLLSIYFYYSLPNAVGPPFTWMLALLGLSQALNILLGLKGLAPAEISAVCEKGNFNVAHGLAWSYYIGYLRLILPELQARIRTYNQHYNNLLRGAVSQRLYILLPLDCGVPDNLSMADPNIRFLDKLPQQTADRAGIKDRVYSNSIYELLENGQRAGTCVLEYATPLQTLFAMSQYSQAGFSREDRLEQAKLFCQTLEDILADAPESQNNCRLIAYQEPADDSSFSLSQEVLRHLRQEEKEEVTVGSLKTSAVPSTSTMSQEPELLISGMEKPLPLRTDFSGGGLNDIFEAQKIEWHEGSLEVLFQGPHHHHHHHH

SMILES	EC50 (full-length HAQ STING)	activation at 30 µM [1, 2]	also measured
Nc1ncnc2c1ncn2[C@@H]1O[C@@]23CO[C@@H]1[C@@H]2OP(=O)(S)OC[C@H]1O[C@@H](n2ccc(=O)n4ccnc24)[C@H](OP(=O)(S)OC3)[C@@H]1O (stereo partly drawn) [Example 6, 8-[(5R,7R,8R,12aR,14R,15R,15aS,18R)-14-(6-amino-9H-purin-9-yl)-18-hydroxy-2,10-dioxido-2,10-disulfanylhexahydro-14H-15,12a-(epoxymethano)-5,8-methanofuro[3,2-l] [1,3,6,9,11,2,10]pentaoxadiphosphacyclotetradecin-7(12H)-yl]imidazo[1,2-a]pyrimidin-5(8H)-one]	28 nM	145%	–
O=c1ccn([C@@H]2O[C@@H]3COP(=O)(S)O[C@@H]4[C@H](O)[C@@H](COP(=O)(S)O[C@H]3[C@H]2O)O[C@H]4n2ccc(=O)n3ccnc23)c2nccn12 (stereo partly drawn) [Example 30, 8,8′-[(5R,7R,8R,12aR,14R,15R,15aS,16R)-15,16-dihydroxy-2,10-dioxido-2,10-disulfanyloctahydro-12H-5,8-methanofuro[3,2-l][1,3,6,9,11,2,10]pentaoxadiphosphacyclo-tetradecine-7,14-diyl]bisimidazo[1,2-a]pyrimidin-5(8H)-one]	37 nM	–	activation at 30 µM [1, 3]: 127%
Nc1ncnc2c1ncn2[C@@H]1O[C@@H]2COP(=O)(S)O[C@@H]3[C@@H](F)[C@@H](COP(=O)(S)O[C@H]2[C@@H]1F)O[C@H]3n1cnc2c(=O)[nH]ccc21 (stereo partly drawn) [Example 21, 1-[(5R,7R,8S,12aR,14R,15S,15aR,16S)-14-(6-amino-9H-purin-9-yl)-15,16-difluoro-2,10-dioxido-2,10-disulfanyloctahydro-12H-5,8-methanofuro[3,2-1][1,3,6,9,11,2,10]pentaoxadiphosphacyclotetradecin-7-yl]-1,5-dihydro-4H-imidazo[4,5-c]pyridin-4-one]	–	–	activation at 30 µM [1, 3]: 143%
Nc1ncnc2c1nnn2[C@@H]1O[C@@H]2COP(=O)(S)O[C@@H]3[C@H](F)[C@@H](COP(=O)(S)O[C@H]2[C@@H]1F)O[C@H]3n1cnc2c(=O)n3cc[nH]c3nc21 (single isomer, unassigned) [Example 24]	411 nM	–	–
Nc1nc2c(ncn2[C@@H]2O[C@@H]3COP(=O)(S)O[C@H]4[C@H](F)[C@H](n5ccc6c(=O)[nH]cnc65)O[C@@H]4COP(=O)(S)O[C@@H]2[C@@H]3F)c(=O)[nH]1 (single isomer, unassigned) [Example 39]	1 nM	166%	–
Nc1nc2c(ncn2[C@@H]2O[C@@H]3COP(=O)(S)O[C@H]4C[C@H](n5ccc6c(=O)[nH]cnc65)O[C@@H]4COP(=O)(S)O[C@@H]2C3)c(=O)[nH]1 (single isomer, unassigned) [Example 37]	49 nM	102%	–
Nc1ncnc2c1ncn2[C@@H]1O[C@@]23CO[C@@H]1[C@@H]2OP(=O)(S)OC[C@H]1O[C@@H](n2cnc4c(=O)n5cc[nH]c5nc42)[C@H](OP(=O)(S)OC3)[C@@H]1F (single isomer, unassigned) [Example 25]	1 nM	–	% Effect at 30 μM relative to 2′3′-cGAMP [1, 4]: 131%
Nc1nc2c(ncn2[C@@H]2O[C@@H]3COP(=O)(O)O[C@H]4C[C@H](n5ccc6c(=O)[nH]cnc65)O[C@@H]4COP(=O)(S)O[C@@H]2C3)c(=O)[nH]1 (stereo partly drawn) [Example 54, 2-amino-9-[(5S,7R,8R,12aR,14R,15aS)-2-hydroxy-2,10-dioxido-14-(4-oxo-3,4-dihydro-7H-pyrrolo[2,3-d]pyrimidin-7-yl)-10-sulfanyloctahydro-12H-5,8-methanofuro[3,2-l][1,3,6,9,11,2,10]pentaoxadiphosphacyclotetradecin-7-yl]-1,9-dihydro-6H-purin-6-one]	12 nM	–	% Effect at 30 μM relative to 2′3′-cGAMP [1]: 68%
Nc1ncnc2c1nnn2[C@@H]1O[C@@H]2COP(=O)(S)O[C@@H]3C[C@@H](COP(=O)(S)O[C@H]2[C@@H]1F)O[C@H]3n1cnc2c(=O)n3cc[nH]c3nc21 (stereo partly drawn) [Example 28, 3-[(5S,7R,8R,12aR,14R,15S,15aR)-14-(7-amino-3H-[1,2,3]triazolo[4,5-d]pyrimidin-3-yl)-15-fluoro-2,10-dioxido-2,10-disulfanyloctahydro-12H-5,8-methanofuro[3,2-l] [1,3,6,9,11,2,10]pentaoxadiphosphacyclotetradecin-7-yl]-3,5-dihydro-9H-imidazo[1,2-a]purin-9-one]	41 nM	143%	–
Nc1nc2c(ncn2[C@@H]2O[C@@H]3COP(=O)(S)O[C@H]4[C@@H](O)[C@H](n5cnc6c(=O)[nH]c7nccn7c65)O[C@@H]4COP(=O)(S)O[C@@H]2[C@@H]3F)c(=O)[nH]1 (single isomer, unassigned) [Example 32]	14 nM	–	% Effect at 30 μM relative to 2′3′-cGAMP [1, 4]: 141%
Nc1nc2c(ncn2[C@@H]2S[C@@H]3COP(=O)(S)O[C@H]4[C@H](F)[C@H](n5ccc6c(=O)[nH]cnc65)O[C@@H]4COP(=O)(S)O[C@@H]2C3)c(=O)[nH]1 (stereo partly drawn) [Example 44, 2-amino-9-[(5S,7R,8R,12aR,14R,15S,15aR)-15-fluoro-2,10-dioxido-14-(4-oxo-3,4-dihydro-7H-pyrrolo[2,3-d]pyrimidin-7-yl)-2,10-disulfanyl-octahydro-12H-5,8-methanofuro[3,2-l] [1,3,9,11,6,2,10]tetraoxathiadiphosphacyclotetradecin-7-yl]-1,9-dihydro-6H-purin-6-one]	1 nM	164%	–
Nc1nc2c(ncn2[C@@H]2O[C@@H]3COP(=O)(S)O[C@H]4[C@@H](O)[C@H](n5ccc(=O)n6ccnc56)O[C@@H]4COP(=O)(S)O[C@@H]2[C@@H]3F)c(=O)[nH]1 (stereo partly drawn) [Example 31, 2-amino-9-[(5R,7R,8S,12aR,14R,15R,15aS,16R)-16-fluoro-15-hydroxy-2,10-dioxido-14-(5-oxoimidazo [1,2-a]pyrimidin-8(5H)-yl)-2,10-disulfanyloctahydro-12H-5,8-methanofuro[3,2-l][1,3,6,9,11,2,10]pentaoxadiphosphacyclotetradecin-7-yl]-1,9-dihydro-6H-purin-6-one]	16 nM	28%	–
Nc1ncnc2c1ccn2[C@@H]1O[C@@H]2COP(=O)(S)O[C@@H]3C[C@@H](COP(=O)(S)O[C@H]2[C@@H]1F)O[C@H]3n1cnc2c(=O)[nH]ccc21 (stereo partly drawn) [Example 22, 1-[(5S,7R,8R,12aR,14R,15S,15aR)-14-(4-amino-7H-pyrrolo[2,3-d]pyrimidin-7-yl)-15-fluoro-2,10-dioxido-2,10-disulfanyloctahydro-12H-5,8-methanofuro[3,2-l][1,3,6,9,11,2,10]pentaoxadiphosphacyclotetradecin-7-yl]-1,5-dihydro-4H-imidazo[4,5-c]pyridin-4-one]	–	100%	–
Nc1ncnc2c1nnn2[C@@H]1O[C@@H]2COP(=O)(S)O[C@@H]3[C@H](F)[C@@H](COP(=O)(S)O[C@H]2[C@@H]1F)O[C@H]3n1cnc2c(=O)n3cc[nH]c3nc21 (single isomer, unassigned) [Example 23]	28 nM	–	–

Reference: US11685761B2, “Cyclic di-nucleotide compounds as sting agonists” (Merck Sharp & Dohme Corp., priority 2017, dated 2023)
